Test results reported in patent EP0745595A1, “3-(3-Aryloxyphenyl)-1-(substituted methyl)-s-triazine-2,4,6-oxo or thiotrione herbicidal agents” (American Cyanamid Company, priority 1995, dated 1996).

Key:
Type in all cases: in vivo
[1] = test system: AMBROSIA ARTEMISIIFOLIA, L.; assay: Postemergence herbicidal evaluation, AMBEL (Ragweed, Common)
In short: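 Common ragweed (Ambrosia artemisiifolia) seedlings were raised in jiffy flats for roughly two weeks, then sprayed postemergence through a nozzle at 40 psi with the test compound dispersed in 50/50 acetone/water carrying 0.5% TWEEN®20. The plants were kept on greenhouse benches under conventional care. Four to five weeks later, injury was rated visually on a 0-9 scale, and repeat tests were averaged.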

[2] = test system: SETARIA VIRIDIS, (L) BEAU; assay: Postemergence herbicidal evaluation, SETVI (Foxtail, Green); parameters: key to SETVI rating / Herbicidal effect rating, SETVI / SETVI: 0-9 visual rating scale vs untreated control
In short: (§1)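 Seedlings about two weeks old were sprayed with compound in 50/50 acetone/water containing 0.5% Tween 20 at about 0.125-0.500 kg/ha and kept in the greenhouse. Visual injury was rated on a 0-9 scale versus control 4-5 weeks after treatment; repeat tests were averaged.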

[…], PRESL. = Preemergence weed control under flooded paddy conditions, MOOVA (Monochoria); conditions: 0.500 kg/ha, preemergence, 3-4 weeks after treatment
In short: (§2)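 Flooded paddy preemergence test: seeds/propagating organs in top 0.5 cm silt loam, water held 1.5-3 cm above soil. Dosing by pipette into flood water, aqueous/acetone 50/50 v/v, ~0.5, 0.25, 0.125, 0.063 kg/ha a.i. Greenhouse; read at 3-4 wk, 0-9 visual scale.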

IPOMOEA SPP. = assay: Postemergence herbicidal evaluation, IPOSS (Morningglory spp.)
In short: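 Seedlings of morningglory (Ipomoea spp.) were raised in jiffy flats for roughly two weeks. They were then sprayed postemergence through a nozzle at 40 psi with test compound dispersed in 50/50 acetone/water containing 0.5% TWEEN®20 surfactant. Plants were kept on greenhouse benches under standard care and visually rated 0-9 against controls four to five weeks after treatment.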

[3] = test system: ORYZA SATIVA, L. TEBONNET; assay: Rice tolerance to post-transplant applications under flooded paddy conditions, ORYSAT (Rice, Tebonnet); conditions: 0.500 kg/ha, post-transplant rice, 3-4 weeks after treatment
In short: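 Post-transplant paddy test: compound applied 3 d after transplanting to flooded soil (1.5-3 cm water), ~0.063-0.5 kg/ha a.i., 50/50 aq/acetone. Silt loam, 2 × 10-d seedlings/pot. Greenhouse 3-4 wk, visual 0-9 score vs control.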

[4] = test system: ECHINOCHLOA CRUS-GALLI, (L) BEAU; assay: Postemergence herbicidal evaluation, ECHCG (Barnyardgrass); parameters: key to ECHCG rating / Herbicidal effect rating, ECHCG / ECHCG: 0-9 visual rating scale vs untreated control
In short: as §1

[5] = test system: ECHINOCHLOA ORYZOIDES (ARD.)FRITSCH; assay: Preemergence weed control under flooded paddy conditions, ECHORC (Watergrass (Calif.)); conditions: 0.500 kg/ha, preemergence, 3-4 weeks after treatment
In short: as §2

[6] = test system: CYPERUS SEROTINUS, ROTTB.; assay: Preemergence weed control under flooded paddy conditions, CYPSE (Flatsedge); conditions: 0.500 kg/ha, preemergence, 3-4 weeks after treatment
In short: as §2

[7] = test system: ABUTILON THEOPHRASTI, MEDIC.; assay: Postemergence herbicidal evaluation, ABUTH (Velvetleaf)
In short: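 Velvetleaf (Abutilon theophrasti) seedlings were raised in jiffy flats for about two weeks and then sprayed postemergence. The test compound was dispersed in a 50/50 acetone/water mixture containing 0.5% TWEEN®20 and applied through a nozzle operating at 40 psi. Plants were kept on greenhouse benches and rated 0-9 four to five weeks after treatment.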

ZEA MAYS L. = assay: Preemergence herbicidal evaluation, ZEAMX (Corn, Field); conditions: rated four to five weeks after treatment
In short: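 Corn (Zea mays) seeds were mixed with potting soil and planted on about one inch of soil in pint cups, then treated preemergence. Cups were kept on greenhouse benches, watered and maintained conventionally, and after four to five weeks were visually rated on a 0-9 scale versus an untreated control.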

CYPERUS IRIA = assay: Preemergence weed control under flooded paddy conditions, CYPIR (Rice Flatsedge); conditions: 0.500 kg/ha, preemergence, 3-4 weeks after treatment
In short: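 Seeds or propagating organs of rice flatsedge were planted in the top 0.5 cm of silt loam soil in 32 oz. plastic containers, 10.5 cm across and without drainage holes. Water was kept 1.5 to 3 cm above the soil throughout. Treated containers were kept on greenhouse benches, and herbicidal effect was visually rated on a 0-9 scale against a control.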

[8] = test system: ORYZA SATIVA, L. TEBONNET; assay: Preemergence herbicidal evaluation, ORYSAT (Rice, Tebonnet); conditions: rated four to five weeks after treatment
Description: Results of herbicide evaluation are expressed on a rating scale (0-9). The scale is based upon a visual observation of plant stand, vigor, malformation, size, chlorosis and overall plant appearance as compared with a control.
The preemergence herbicidal activity of the test compounds of the present invention is exemplified by the following tests in which the seeds of a variety of monocotyledonous and dicotyledonous plants are separately mixed with potting soil and planted on top of approximately one inch of soil in separate pint cups. […] The treated cups are then placed on greenhouse benches, watered and cared for in accordance with conventional greenhouse procedures. From four to five weeks after treatment, the tests are terminated and each cup is examined and rated according to the rating system provided in Example 40.
The compounds evaluated are reported by compound number given in Example 40.

GALIUM APARINE = assay: Postemergence herbicidal evaluation, GALAP (Galium); parameters: key to GALAP rating / Herbicidal effect rating, GALAP / GALAP: 0-9 visual rating scale vs untreated control
In short: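 Galium (GALAP) seedlings were raised in jiffy flats for about two weeks, then sprayed with test compounds dispersed in 50/50 acetone/water containing 0.5% TWEEN®20, delivered through a nozzle at 40 psi. Plants were kept on greenhouse benches and visually rated 0-9 against a control four to five weeks later; repeat tests were averaged.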

CASSIA OBTUSIFOLIA, L. = assay: Postemergence herbicidal evaluation, CASOB (Sicklepod); parameters: key to CASOB rating / Herbicidal effect rating, CASOB / CASOB: 0-9 visual rating scale vs untreated control
In short: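 Visual 0–9 scores reflect stand, vigor, malformation, size, chlorosis and overall appearance relative to control, taken 4–5 weeks after spraying two-week-old seedlings with about 0.125–0.500 kg/ha compound in acetone/water/TWEEN 20.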

SAGITTARIA PYGMAEA, L. = assay: Preemergence weed control under flooded paddy conditions, SAGPY (Arrowhead (Pygmaea)); conditions: 0.500 kg/ha, preemergence, 3-4 weeks after treatment
In short: as §2

[9] = test system: GLYCINE MAX(L) MERR. CV. WILLIAMS; assay: Preemergence herbicidal evaluation, GLXMAW (Soybean, Williams); conditions: rated four to five weeks after treatment
In short: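 Rated 0-9 by visual comparison with control (stand, vigor, malformation, size, chlorosis, overall appearance) four to five weeks after preemergence soil spray. Dose equivalent to about 0.125 to 0.50 kg per hectare, applied in aqueous acetone to freshly seeded cups kept in greenhouse.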

For `COC(=O)Cn1c(=O)n(C)c(=O)n(-c2cc(Oc3ccc(C#N)cc3)ccc2[N+](=O)[O-])c1=O` [Compound 32, Methyl 3-[5-(p-cyanophenoxy)-2-nitrophenyl]-tetrahydro-5-methyl-2,4,6-trioxo-s-triazine-1(2H)-acetate], the AMBEL rating ([1]; Rate 0.125 kg/ha) was 0.0, the AMBEL rating ([1]; Rate 0.250 kg/ha) was 0.0 and the AMBEL rating ([1]; Rate 0.500 kg/ha) was 0.0. For the same compound, the SETVI rating ([2]; Rate 0.125 kg/ha) was 0.0, the SETVI rating ([2]; Rate 0.250 kg/ha) was 0.0 and the SETVI rating ([2]; Rate 0.500 kg/ha) was 0.0. For the same compound, the “Herbicidal effect rating, MOOVA” value ([…], PRESL.) was 0.0, the IPOSS rating (IPOMOEA SPP.; Rate 0.125 kg/ha) was 0.0 and the IPOSS rating (IPOMOEA SPP.; Rate 0.250 kg/ha) was 0.0. For the same compound, the IPOSS rating (IPOMOEA SPP.; Rate 0.500 kg/ha) was 0.0, the “Herbicidal effect rating, ORYSAT” value [3] was 0.0 and the ECHCG rating ([4]; Rate 0.125 kg/ha) was 0.0. The ECHCG rating ([4]; Rate 0.250 kg/ha) was 0.0, the ECHCG rating ([4]; Rate 0.500 kg/ha) was 0.0 and the “Herbicidal effect rating, ECHORC” value [5] was 0.0. For the same compound, the “Herbicidal effect rating, CYPSE” value [6] was 0.0, the ABUTH rating ([7]; Rate 0.125 kg/ha) was 0.0 and the ABUTH rating ([7]; Rate 0.250 kg/ha) was 0.0. For the same compound, the ABUTH rating ([7]; Rate 0.500 kg/ha) was 0.0, the ZEAMX herbicidal rating (ZEA MAYS L.; Rate 0.125 kg/ha) was 0.0 and the ZEAMX herbicidal rating (ZEA MAYS L.; Rate 0.250 kg/ha) was 0.0. The ZEAMX herbicidal rating (ZEA MAYS L.; Rate 0.500 kg/ha) was 0.0, the “Herbicidal effect rating, CYPIR” value (CYPERUS IRIA) was 0.0 and the ORYSAT herbicidal rating ([8]; Rate 0.125 kg/ha) was 2.0. The ORYSAT herbicidal rating ([8]; Rate 0.250 kg/ha) was 2.0, the ORYSAT herbicidal rating ([8]; Rate 0.500 kg/ha) was 2.0 and the GALAP rating (GALIUM APARINE; Rate 0.125 kg/ha) was 0.0. The GALAP rating (GALIUM APARINE; Rate 0.250 kg/ha) was 0.0, the GALAP rating (GALIUM APARINE; Rate 0.500 kg/ha) was 0.0 and the CASOB rating (CASSIA OBTUSIFOLIA, L.; Rate 0.125 kg/ha) was 0.0. For the same compound, the CASOB rating (CASSIA OBTUSIFOLIA, L.; Rate 0.250 kg/ha) was 0.0, the CASOB rating (CASSIA OBTUSIFOLIA, L.; Rate 0.500 kg/ha) was 0.0 and the “Herbicidal effect rating, SAGPY” value (SAGITTARIA PYGMAEA, L.) was 0.0. It also gave a GLXMAW herbicidal rating ([9]; Rate 0.125 kg/ha) of 0.0, a GLXMAW herbicidal rating ([9]; Rate 0.250 kg/ha) of 0.0 and a GLXMAW herbicidal rating ([9]; Rate 0.500 kg/ha) of 0.0.
